Experimental data: ChEMBL document CHEMBL3585260, “2-Aminoalkyl nicotinamide derivatives as pure inverse agonists of the ghrelin receptor” (Bioorg Med Chem Lett, 2015)
The source made the active and inactive calls. The rule behind the calls is not given here.

Legend:
[1] = target: T1, Growth hormone secretagogue receptor type 1 (Rattus norvegicus, UniProt O08725); assay: Inverse agonist activity at rat ghrelin receptor expressed in HEK293 cells by NFAT-RE-luciferase reporter gene assay; format: cell-based
[2] = target: T2, Growth hormone secretagogue receptor type 1 (Homo sapiens, UniProt Q92847); assay: Binding affinity to ghrelin receptor (unknown origin)
[3] = target: Neurotensin receptor type 2 (Homo sapiens) (UniProt O95665); assay: Inverse agonist activity at NTSR2 (unknown origin) expressed in HEK293 cells assessed as suppression of constitutive receptor activity by NFAT-RE-luciferase reporter gene assay; format: cell-based
[4] = target: Growth hormone secretagogue receptor type 1 (Rattus norvegicus) (UniProt O08725); assay: Inverse agonist activity at rat ghrelin receptor expressed in HEK293 cells assessed as blockade of constitutive receptor activity b by NFAT-RE-luciferase reporter gene assay; format: cell-based
[5] = Toxicity against HEK293 cells assessed as cell viability at 50 uM by alamar blue staining method; format: cell-based; conditions: human, read-out: Activity
[6] = Toxicity against HEK293 cells assessed as cell viability at 2 uM by alamar blue staining method; format: cell-based; conditions: human, read-out: Activity
Rattus norvegicus [7] = assay: Inhibition of ghrelin-induced food intake in rat at 15 to 30 mg/kg, ip after 30 mins; format: functional, organism-based
Rattus norvegicus [8] = assay: Toxicity in rat assessed as induction of behavioral effect at 10 to 30 mg/kg, ip; format: organism-based; conditions: in vivo
hERG (KCNH2) = hERG (KCNH2) (Homo sapiens, UniProt Q12809); assay: Inhibition of human ERG at 10 uM
Liver microsome = assay: Drug metabolism in human liver microsomes; format: ADME
CYP3A4 = CYP3A4 (Homo sapiens, UniProt P08684); assay: Inhibition of CYP3A4 (unknown origin) at 10 uM; format: ADME
Mus musculus [9] = assay: Inhibition of ghrelin-induced food intake in mouse model of high fat diet-induced obesity at 30 mg/kg, sc dosed twice daily for 14 days; format: functional, organism-based
[10] = Bioavailability in mouse at 10 mg/kg, sc administered as single dose; format: ADME, organism-based; conditions: in vivo
[11] = target: 5-hydroxytryptamine receptor 2C (Homo sapiens) (UniProt P28335); assay: Inhibition of radioligand binding at human 5HT2C receptor at 10 uM
[12] = target: Adrenergic receptor alpha-2 (Homo sapiens) (UniProt P08913+P18825+P18089); assay: Inhibition of radioligand binding at alpha-2 adrenergic receptor (unknown origin) at 10 uM
Mus musculus [13] = assay: Inhibition of ghrelin-induced food intake in mouse model of high fat diet-induced obesity at 10 mg/kg, sc dosed twice daily for 14 days; format: functional, organism-based
Mus musculus [14] = assay: Toxicity in mouse model of high fat diet-induced obesity assessed as induction of sedation at 10 and 30 mg/kg, sc; format: organism-based; conditions: in vivo
Salmonella typhimurium = assay: Mutagenicity in Salmonella typhimurium by Ames test; format: toxicity, organism-based; conditions: salmonella enterica subsp. enterica serovar typhimurium
[15] = target: Sodium-dependent noradrenaline transporter (Homo sapiens) (UniProt P23975); assay: Inhibition of radioligand binding at human NET at 10 uM
[16] = Total clearance in mouse at 10 mg/kg administered as single dose; format: ADME, organism-based; conditions: in vivo
[17] = target: Cholecystokinin receptor type A (Homo sapiens) (UniProt P32238); assay: Inhibition of radioligand binding at human CCKA at 10 uM
[18] = Inhibition of ghrelin-induced growth hormone release in rat primary pituitary cells; format: functional, cell-based; conditions: Pituitary gland cell
[19] = target: Neuropeptide Y receptor type 1 (Homo sapiens) (UniProt P25929); assay: Inhibition of radioligand binding at human neuropeptide Y1 receptor at 10 uM
Rattus norvegicus [20] = assay: Toxicity in rat assessed as induction of sedation at 10 to 30 mg/kg, ip; format: organism-based; conditions: in vivo
[21] = target: D(2) dopamine receptor (Homo sapiens) (UniProt P14416); assay: Inhibition of radioligand binding at dopamine D2 receptor (unknown origin) at 10 uM
[22] = Bioavailability in mouse at 10 mg/kg, ip administered as single dose; format: ADME, organism-based; conditions: in vivo
[23] = Oral bioavailability in mouse at 10 mg/kg, administered as single dose; format: ADME, organism-based; conditions: in vivo
[24] = Ratio of drug level in brain to plasma in mouse at 10 mg/kg, ip administered as single dose after 1 hr; format: ADME, organism-based; conditions: brain and plasma, read-out: BPR
[25] = Protein binding in human plasma; format: ADME, cell-free; conditions: read-out: PPB
[26] = target: Motilin receptor (Homo sapiens) (UniProt O43193); assay: Inhibition of radioligand binding at human MTLR1 at 10 uM
Rattus norvegicus [27] = assay: Inhibition of ghrelin-induced gastric emptying in rat assessed as suppression of gastric content at 10 mg/kg, sc pre-treated 15 mins before ghrelin challenge; format: functional, organism-based; conditions: Stomach
[28] = target: Melanocortin receptor 4 (Homo sapiens) (UniProt P32245); assay: Inhibition of radioligand binding at human melanocortin MC4 receptor at 10 uM
[29] = target: D(1A) dopamine receptor (Homo sapiens) (UniProt P21728); assay: Inhibition of radioligand binding at dopamine D1 receptor (unknown origin) at 10 uM
[30] = target: T2, Growth hormone secretagogue receptor type 1; assay: Antagonist activity against ghrelin receptor (unknown origin) expressed in CHO cells assessed as inhibition of ghrelin-induced calcium response; format: functional, cell-based
Mus musculus [31] = assay: Toxicity in mouse model of high fat diet-induced obesity assessed as induction of behavioral effect at 10 and 30 mg/kg, sc; format: organism-based; conditions: in vivo
Rattus norvegicus [32] = assay: Inhibition of ghrelin-induced gastric emptying in rat assessed as suppression of gastric motility at 10 mg/kg, sc pre-treated 15 mins before ghrelin challenge; format: functional, organism-based; conditions: Stomach
Rattus norvegicus [33] = assay: Inhibition of ghrelin-induced growth hormone release in rat at 3 mg/kg, iv pre-treated 5 mins before ghrelin challenge; format: functional, organism-based
[34] = target: Sodium-dependent serotonin transporter (Homo sapiens) (UniProt P31645); assay: Inhibition of radioligand binding at human SERT at 10 uM
[35] = target: Cannabinoid receptor 1 (Homo sapiens) (UniProt P21554); assay: Inhibition of radioligand binding at human CB1 receptor at 10 uM
HEK293 [36] = assay: Toxicity against HEK293 cells assessed as cell viability at >10 uM by alamar blue staining method; format: cell-based; conditions: human
HEK293 [37] = assay: Toxicity against HEK293 cells assessed as cell viability up to 10 uM by alamar blue staining method; format: cell-based; conditions: human
[38] = target: T1, Growth hormone secretagogue receptor type 1; assay: Inverse agonist activity at rat ghrelin receptor by inositol phosphate turnover assay; format: functional
[39] = target: T1, Growth hormone secretagogue receptor type 1; assay: Inverse agonist activity at rat ghrelin receptor expressed in HEK293 cells by inositol phosphate turnover assay; format: functional, cell-based

Sequence of Neurotensin receptor type 2 (Homo sapiens) (O95665 whole entry): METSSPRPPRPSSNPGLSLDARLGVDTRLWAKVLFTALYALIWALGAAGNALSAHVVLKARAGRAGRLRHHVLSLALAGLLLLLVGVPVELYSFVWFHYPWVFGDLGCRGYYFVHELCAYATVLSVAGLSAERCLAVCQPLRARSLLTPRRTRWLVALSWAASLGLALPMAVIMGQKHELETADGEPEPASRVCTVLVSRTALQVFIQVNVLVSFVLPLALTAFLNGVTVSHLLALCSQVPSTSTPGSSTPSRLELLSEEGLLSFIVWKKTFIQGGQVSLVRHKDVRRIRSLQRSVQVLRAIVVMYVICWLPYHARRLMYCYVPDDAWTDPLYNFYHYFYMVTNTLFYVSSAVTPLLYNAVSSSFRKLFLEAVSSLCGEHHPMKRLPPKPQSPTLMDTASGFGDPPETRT
Sequence of Growth hormone secretagogue receptor type 1 (Rattus norvegicus) (O08725 whole entry): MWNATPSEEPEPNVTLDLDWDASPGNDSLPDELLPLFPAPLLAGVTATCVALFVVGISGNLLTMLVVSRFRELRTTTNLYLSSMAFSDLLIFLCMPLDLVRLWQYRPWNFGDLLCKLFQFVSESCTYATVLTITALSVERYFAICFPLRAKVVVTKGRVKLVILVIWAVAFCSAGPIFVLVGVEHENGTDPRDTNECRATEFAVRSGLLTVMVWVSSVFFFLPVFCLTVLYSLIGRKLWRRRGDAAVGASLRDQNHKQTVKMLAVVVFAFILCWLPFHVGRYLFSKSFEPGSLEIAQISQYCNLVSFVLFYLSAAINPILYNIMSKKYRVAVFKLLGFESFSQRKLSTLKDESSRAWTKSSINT
T1 sequence (O08725 whole entry): as above
T2 sequence (Q92847 whole entry): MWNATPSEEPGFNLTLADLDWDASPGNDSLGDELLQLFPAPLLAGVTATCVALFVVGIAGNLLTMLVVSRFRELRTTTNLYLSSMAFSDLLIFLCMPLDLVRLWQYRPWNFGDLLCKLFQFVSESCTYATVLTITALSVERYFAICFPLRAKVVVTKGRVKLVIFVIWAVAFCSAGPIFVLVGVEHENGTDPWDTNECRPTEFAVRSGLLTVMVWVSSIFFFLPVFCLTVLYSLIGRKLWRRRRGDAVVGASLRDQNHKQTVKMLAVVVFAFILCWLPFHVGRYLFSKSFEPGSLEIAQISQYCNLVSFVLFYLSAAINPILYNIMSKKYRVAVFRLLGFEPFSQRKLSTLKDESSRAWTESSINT
Sequence of 5-hydroxytryptamine receptor 2C (Homo sapiens) (P28335 whole entry): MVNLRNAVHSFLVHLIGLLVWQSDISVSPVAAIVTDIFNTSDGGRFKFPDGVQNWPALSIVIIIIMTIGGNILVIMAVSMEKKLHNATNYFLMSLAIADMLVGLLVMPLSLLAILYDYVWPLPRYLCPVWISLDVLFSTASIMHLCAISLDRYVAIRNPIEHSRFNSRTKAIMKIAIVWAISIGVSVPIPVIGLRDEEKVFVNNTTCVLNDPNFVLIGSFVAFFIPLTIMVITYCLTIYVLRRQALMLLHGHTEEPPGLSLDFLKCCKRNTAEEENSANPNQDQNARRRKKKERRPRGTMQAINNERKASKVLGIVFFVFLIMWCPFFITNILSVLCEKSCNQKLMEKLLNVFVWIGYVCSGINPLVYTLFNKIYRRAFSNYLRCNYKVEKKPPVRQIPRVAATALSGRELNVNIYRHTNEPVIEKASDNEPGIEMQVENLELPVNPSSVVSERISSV
Sequence of Motilin receptor (Homo sapiens) (O43193 whole entry): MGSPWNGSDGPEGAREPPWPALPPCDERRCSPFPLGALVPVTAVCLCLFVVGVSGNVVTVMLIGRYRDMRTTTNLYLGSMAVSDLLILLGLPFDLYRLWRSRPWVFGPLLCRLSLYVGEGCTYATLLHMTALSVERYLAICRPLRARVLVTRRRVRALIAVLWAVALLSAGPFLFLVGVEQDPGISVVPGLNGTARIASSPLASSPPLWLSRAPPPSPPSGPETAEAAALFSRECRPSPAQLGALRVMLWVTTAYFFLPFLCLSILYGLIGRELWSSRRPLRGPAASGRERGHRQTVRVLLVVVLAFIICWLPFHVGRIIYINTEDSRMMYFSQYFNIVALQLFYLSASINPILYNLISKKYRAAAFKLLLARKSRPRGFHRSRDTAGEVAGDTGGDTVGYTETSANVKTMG
Sequence of hERG (KCNH2) (Q12809 whole entry): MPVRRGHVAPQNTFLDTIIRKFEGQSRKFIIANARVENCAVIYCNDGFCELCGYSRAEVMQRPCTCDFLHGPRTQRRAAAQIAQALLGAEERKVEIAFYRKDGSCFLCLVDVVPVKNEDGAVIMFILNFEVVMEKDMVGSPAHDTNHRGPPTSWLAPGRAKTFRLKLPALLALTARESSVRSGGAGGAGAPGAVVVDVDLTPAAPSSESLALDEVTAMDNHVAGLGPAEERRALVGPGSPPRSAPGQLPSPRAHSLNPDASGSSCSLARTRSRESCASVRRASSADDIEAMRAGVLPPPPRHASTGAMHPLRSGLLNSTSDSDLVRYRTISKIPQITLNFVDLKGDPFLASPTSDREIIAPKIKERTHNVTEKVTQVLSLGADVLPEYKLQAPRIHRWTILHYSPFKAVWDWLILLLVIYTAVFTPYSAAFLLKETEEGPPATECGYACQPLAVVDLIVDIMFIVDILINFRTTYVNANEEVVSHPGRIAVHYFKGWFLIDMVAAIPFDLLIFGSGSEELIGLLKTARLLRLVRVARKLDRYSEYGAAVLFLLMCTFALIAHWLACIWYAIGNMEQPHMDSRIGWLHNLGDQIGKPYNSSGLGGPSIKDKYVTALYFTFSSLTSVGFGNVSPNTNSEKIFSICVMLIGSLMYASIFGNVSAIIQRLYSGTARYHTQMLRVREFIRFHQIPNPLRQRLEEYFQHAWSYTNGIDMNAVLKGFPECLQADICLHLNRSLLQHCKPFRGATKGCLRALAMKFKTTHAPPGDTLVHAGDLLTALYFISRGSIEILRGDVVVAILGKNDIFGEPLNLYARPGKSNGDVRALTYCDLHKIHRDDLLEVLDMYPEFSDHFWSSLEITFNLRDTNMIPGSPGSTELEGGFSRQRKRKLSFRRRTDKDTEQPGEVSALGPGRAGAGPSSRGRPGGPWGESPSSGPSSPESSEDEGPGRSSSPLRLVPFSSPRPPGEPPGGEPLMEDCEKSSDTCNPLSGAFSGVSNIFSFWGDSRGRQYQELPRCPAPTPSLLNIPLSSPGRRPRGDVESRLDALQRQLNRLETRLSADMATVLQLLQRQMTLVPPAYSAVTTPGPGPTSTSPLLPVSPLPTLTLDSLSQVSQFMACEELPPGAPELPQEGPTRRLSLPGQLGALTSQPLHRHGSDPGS
Sequence of Cannabinoid receptor 1 (Homo sapiens) (P21554 whole entry): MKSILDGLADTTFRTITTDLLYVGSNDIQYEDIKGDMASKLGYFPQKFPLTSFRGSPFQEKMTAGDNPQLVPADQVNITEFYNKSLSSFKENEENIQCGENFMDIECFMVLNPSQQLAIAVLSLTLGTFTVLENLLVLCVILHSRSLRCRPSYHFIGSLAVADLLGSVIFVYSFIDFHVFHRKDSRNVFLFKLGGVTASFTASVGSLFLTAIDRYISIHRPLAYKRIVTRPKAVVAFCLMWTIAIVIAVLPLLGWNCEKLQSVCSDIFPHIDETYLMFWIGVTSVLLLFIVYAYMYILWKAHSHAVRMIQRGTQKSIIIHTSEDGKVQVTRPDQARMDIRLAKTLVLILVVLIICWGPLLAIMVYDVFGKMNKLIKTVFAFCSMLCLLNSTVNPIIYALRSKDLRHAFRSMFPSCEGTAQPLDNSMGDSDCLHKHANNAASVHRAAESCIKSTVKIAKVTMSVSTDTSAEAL
Sequence of D(1A) dopamine receptor (Homo sapiens) (P21728 whole entry): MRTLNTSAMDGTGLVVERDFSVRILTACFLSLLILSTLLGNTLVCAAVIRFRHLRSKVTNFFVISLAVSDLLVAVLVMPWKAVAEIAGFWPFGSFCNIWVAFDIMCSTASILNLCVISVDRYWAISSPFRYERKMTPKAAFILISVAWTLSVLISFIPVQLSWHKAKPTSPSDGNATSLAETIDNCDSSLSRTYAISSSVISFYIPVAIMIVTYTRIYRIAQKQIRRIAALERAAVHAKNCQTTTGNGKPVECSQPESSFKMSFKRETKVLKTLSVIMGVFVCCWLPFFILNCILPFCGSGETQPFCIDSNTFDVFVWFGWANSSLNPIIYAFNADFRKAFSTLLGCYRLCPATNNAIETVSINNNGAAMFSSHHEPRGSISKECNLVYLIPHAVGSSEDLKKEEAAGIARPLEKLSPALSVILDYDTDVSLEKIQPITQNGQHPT
Sequence of Neuropeptide Y receptor type 1 (Homo sapiens) (P25929 whole entry): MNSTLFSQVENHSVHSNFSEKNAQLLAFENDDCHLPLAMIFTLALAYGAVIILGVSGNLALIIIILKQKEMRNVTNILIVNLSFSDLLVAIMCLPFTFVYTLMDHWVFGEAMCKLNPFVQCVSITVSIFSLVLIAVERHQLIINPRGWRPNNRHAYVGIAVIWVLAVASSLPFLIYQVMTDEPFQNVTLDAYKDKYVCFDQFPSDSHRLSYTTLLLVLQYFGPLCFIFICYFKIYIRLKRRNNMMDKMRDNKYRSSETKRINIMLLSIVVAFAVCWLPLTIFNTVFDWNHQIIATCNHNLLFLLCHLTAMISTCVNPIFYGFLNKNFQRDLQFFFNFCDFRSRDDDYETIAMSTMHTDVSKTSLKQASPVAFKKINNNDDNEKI
Sequence of Melanocortin receptor 4 (Homo sapiens) (P32245 whole entry): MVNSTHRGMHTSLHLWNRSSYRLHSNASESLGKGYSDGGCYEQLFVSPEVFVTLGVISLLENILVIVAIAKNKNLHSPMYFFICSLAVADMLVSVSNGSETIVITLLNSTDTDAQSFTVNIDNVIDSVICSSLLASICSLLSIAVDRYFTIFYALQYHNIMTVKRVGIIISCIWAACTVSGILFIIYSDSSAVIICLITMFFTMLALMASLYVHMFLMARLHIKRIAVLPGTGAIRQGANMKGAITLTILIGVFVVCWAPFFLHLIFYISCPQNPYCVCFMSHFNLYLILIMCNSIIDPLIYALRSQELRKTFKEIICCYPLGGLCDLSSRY

Compound: CCCn1cc(-c2cnc(NCc3ccc4occc4c3)c(C(=O)NCC3COc4ccccc4O3)c2)cn1 (stereo not drawn)
- IC50 [1]: 720 nM
- IC50 [2]: 150 nM
- Activity [3]: inactive
- Efficacy [4]: > 95%

Compound: CCCn1cc(-c2cnc(NCc3ccc4ncsc4c3)c(C(=O)NCC3COc4ccccc4O3)c2)cn1 (stereo not drawn)
- IC50 [1]: 900 nM
- IC50 [2]: 260 nM
- Activity [3]: inactive
- Efficacy [4]: > 95%

Compound: CCCn1cc(-c2cnc(NCc3ccc4c(c3)OCO4)c(C(=O)NCC3COc4ccccc4O3)c2)cn1 (stereo not drawn)
- IC50 [1]: 170 nM
- IC50 [2]: 36 nM
- viability at 50 µM [5]: 69%
- viability at 2 µM [6]: 85%
- Activity [3]: inactive
- Efficacy [4]: > 95%

Compound: CCn1cc(-c2cnc(NCc3ccc4c(c3)OCO4)c(C(=O)NC[C@@H]3COc4ccccc4O3)c2)cn1
- IC50 [1]: 5500 nM
- IC50 [2]: 180 nM
- Activity [3]: inactive
- Efficacy [4]: > 95%

Compound: CCn1cc(-c2cnc(NCc3ccc4c(c3)OCO4)c(C(=O)NC[C@H]3COc4ccccc4O3)c2)cn1
- IC50 [1]: 110 nM
- IC50 [2]: 24 nM
- Activity [3]: inactive
- Efficacy [4]: > 95%

Compound: O=C(NC[C@H]1COc2ccccc2O1)c1cc(N2CCOCC2)cnc1NCc1ccc2c(c1)OCO2
- IC50 [1]: 2000 nM
- IC50 [2]: 47 nM
- Activity [3]: inactive
- Efficacy [4]: > 95%

Compound: C[C@@H]1CN(c2cnc(NCc3ccc4c(c3)OCC4)c(C(=O)NC[C@H]3COc4ccccc4O3)c2)C[C@H](C)O1
- IC50 [1]: 350 nM
- IC50 [2]: 7.2 nM
- Activity [3]: inactive
- Efficacy [4]: > 95%

Compound: O=C(NC[C@H]1COc2ccccc2O1)c1cc(N2C[C@H]3CC[C@@H](C2)O3)cnc1NCc1ccc2c(c1)OCO2
- IC50 [1]: 560 nM
- IC50 [2]: 5.4 nM
- Activity [3]: inactive
- Efficacy [4]: > 95%

Compound: CC(=O)N1CC=C(c2cnc(NCc3ccc4c(c3)OCO4)c(C(=O)NC[C@H]3COc4ccccc4O3)c2)CC1
- IC50 [1]: 2500 nM
- IC50 [2]: 42 nM
- Activity [3]: inactive
- Efficacy [4]: > 95%

Compound: CC(=O)N1[C@@H]2CC[C@H]1C=C(c1cnc(NCc3ccc4c(c3)OCC4)c(C(=O)NC[C@H]3COc4ccccc4O3)c1)C2 (mixture of isomers)
- inhibition (Rattus norvegicus [7]): Active
- Activity (Rattus norvegicus [8]): Non-toxic
- inhibition at 10 µM (hERG (KCNH2)): 36%
- IC50 [1]: 47 nM
- Drug metabolism (Liver microsome): 302 pmol/min/mg
- inhibition at 10 µM (CYP3A4): 26%
- inhibition (Mus musculus [9]): Active
- bioavailability [10]: 99.1%
- inhibition [11]: 7.1%
- IC50 [2]: 0.96 nM
- inhibition [12]: 12.6%
- inhibition (Mus musculus [13]): Active
- Activity (Mus musculus [14]): Non-toxic
- Activity (Salmonella typhimurium): Non-toxic
- inhibition [15]: 0%
- clearance [16]: 68.2 mL/min/kg
- inhibition [17]: 0%
- IC50 [18]: 13 nM
- inhibition [19]: 1%
- Activity (Rattus norvegicus [20]): Non-toxic
- inhibition [21]: 7.1%
- bioavailability [22]: 83.2%
- bioavailability [23]: 0.64%
- Kp at 1 h [24]: 0.005
- fraction unbound [25]: 0.01
- inhibition [26]: 18.8%
- inhibition (Rattus norvegicus [27]): Active
- inhibition [28]: 2.4%
- inhibition [29]: 5.6%
- Activity [3]: inactive
- IC50 [30]: 31 nM
- Activity (Mus musculus [31]): Non-toxic
- inhibition (Rattus norvegicus [32]): Active
- inhibition (Rattus norvegicus [33]): Active
- inhibition [34]: 0%
- Efficacy [4]: > 95%
- inhibition [35]: 0%

Compound: CC(C)N1[C@@H]2CC[C@H]1C=C(c1cnc(NCc3ccc4c(c3)OCC4)c(C(=O)NC[C@H]3COc4ccccc4O3)c1)C2 (mixture of isomers)
- IC50 [1]: 4.1 nM
- Activity (HEK293 [36]): Toxic
- IC50 [2]: 0.23 nM
- Activity (HEK293 [37]): Toxic
- Activity [3]: inactive
- Efficacy [4]: > 95%

Compound: CCCn1cc(-c2cnc(NCc3ccc4sccc4c3)c(C(=O)NCC3COc4ccccc4O3)c2)cn1 (racemic)
- IC50 [1]: 400 nM
- IC50 [2]: 84 nM
- viability at 50 µM [5]: 92%
- viability at 2 µM [6]: 101%
- Activity [3]: inactive
- Efficacy [4]: > 95%

Compound: CCCn1cc(-c2cnc(NCc3ccc4c(c3)OCC4)c(C(=O)NCC3COc4ccccc4O3)c2)cn1 (racemic)
- IC50 [1]: 140 nM
- IC50 [2]: 11 nM
- Activity [3]: inactive
- Efficacy [4]: > 95%

Compound: O=C(NCC1COc2ccccc2O1)c1cc(-c2ccnc(Cl)c2)cnc1NCc1ccc2c(c1)OCC2 (racemic)
- IC50 [1]: 390 nM
- IC50 [2]: 6.9 nM
- Activity [3]: inactive
- Efficacy [4]: > 95%

Compound: H-RPKPFQWFWLL-NH2
- IC50 [1]: 250 nM
- IC50 [38]: 5.2 nM
- IC50 [39]: 146 nM
